Where two headings read alike, the source gives them in different places.
Legend:
CD8+ T cells = experiment: pSTAT5 signaling in human LRS-derived PBMC, CD8+ T cells (flow cytometry); format: cell-based; conditions: for pSTAT5 EC50, CD8+ T cells: 45 minute incubation
Protocol: (§2) To determine how test compounds affect activation of primary immune cell subpopulations, concentration-response profiling of lymphocyte activation in human LRS-derived peripheral blood mononuclear cell (PBMC) samples were performed using multi-color flow cytometry.
(§3) An LRS was acquired day of draw and PBMC was extracted using a ficoll density gradient protocol. PBMC was resuspended in RPMI supplemented with 10% Fetal Bovine Serum and 1% Pen-Strep Glutamine. PBMC was incubated at 37° C. for 30 minutes prior to stimulation.
(§4) A 12-point dose curve with 5-fold dilutions was created for all compounds. Top dose was 30 ug mL. Dose curves were diluted in PBS w/0.1% BSA and added as 10× stocks. After a 45 minute incubation, samples were fixed and stained with antibodies to detect the phosphorylated form of the transcription factor STAT5 (pTATA5), and a panel of surface markers to follow pSTAT5 formation in specific T Cell and natural killer (NK) cell subpopulation.
(§5) Samples were stained with the following pre-perm panel: CD3, CD25, CD8, CD56, CD16, CD4, Dump (CD14), Dump (CD19), and CD127. Stains were incubated for 30 minutes then washed out. Streptavidin BV421 (Biolegend cat #405225) was then added and incubated for 20 minutes. Streptavidin was washed out and samples were MeOH permed and stained with the following post-perm panel: FOXP3. STAT5, Dump (CD15). Stains were incubated for 60 minutes then washed out and analyzed by flow cytometry.
(§6) Flow cytometry data were analyzed for activation of different T and NK cell subsets in concentration-response mode, reading pSTAT5 accumulation after treatment with test compounds. The median fluorescence intensity for pSTAT5 was used to create the dose curves. EC50 values for NK cells, Treg cells, CD8+ T cells were calculated from the concentration-response curves.

[1] = system: CT26 murine colon carcinoma; format: in vivo
Protocol: 5×10^5 CT26 cells in 0.1 ml of PBS were implanted subcutaneously for each 7-10 weeks old syngeneic female BALB/c mouse in the right front flank region. Tumors were allowed to grow to palpable size, i.e., 80-110 cu mm before randomization and assigning groups (n=8) as designed. The mice were administered test compounds i.e., rIL-2, rIL-2-polymer conjugates of vehicle at different dose concentrations and dose regimes as indicated in Tables 6-8. The body weights and tumor volumes were measured three times per week. Mice that have been tumor free for more than 30 days were re-challenged in the left front flank with CT26 tumor cells (5×10^5) in 0.1 mal of PBS.
(§1) Tumor growth inhibition following the administration of rIL-2 and rIL-2-polymer conjugates at different administration schemes were provided in FIGS. 5A-7B. The tumor growth inhibition (TGI) for different treatment groups, complete response (CR) rate, toxicity and rechallenge results were shown in Tables 9-11. Tumor Growth Inhibition; TGI %=(1−ΔT/ΔC)×100; Ti and Ci as the mean tumor volumes of the treatment and vehicle groups on the measurement day; T0 and C0 as the mean tumor volumes of the treatment and vehicle groups on Day 0.

Treg cells = experiment: pSTAT5 signaling in human LRS-derived PBMC, Treg cells (flow cytometry); format: cell-based; conditions: 45 minute incubation
Protocol: as §2, §3, §4, §5, §6

CTLL-2 cells = experiment: CTLL-2 cell proliferation assay; format: cell-based, mouse
Protocol: CTLL-2 cells (mouse cytotoxic T lymphocyte cell line) were maintained in complete RPMI 1640 medium supplemented with 10% fetal bovine serum, and 10% IL-2 culture supplement (T-STIM™ with ConA (concanavalin-A)) at 37° C. under a 5% CO2 atmosphere. The cells were cultured in suspension until they reach a cell density of 2-3×10^5 cells/ml before splitting.
For the activity assay, 3-4 days after the last split, the cells were washed three times in Dulbecco's phosphate buffered saline. The cells were then re-suspended in supplemented media without T-STIM™ at a cell density of ˜5×10^5 cells/mL, and plated in 96-well white walled clear bottom microplates at 90 μl/well. Experiments were also conducted using supplemented media (without T-STIM™) adjusted to pH 6.7-7, in order to minimize the release of conjugates during the course of incubation. Then, 10 μl of 10× concentrations of test compound, diluted in supplemented media without T-STIM™, was added. The cells were incubated at 37° C. in a 5% CO2 atmosphere for 48 hours.
The activity of both released IL-2 and unreleased conjugates were tested. The test compounds were stored under acidic condition (10 mM, sodium acetate buffer, pH 4) to stabilize conjugation. To test the activity of conjugates, the sample was diluted from the storage buffer into supplemented media ˜ one hour prior to the assay. […]

[2] = system: MC38 murine colon carcinoma; experiment: Subcutaneous MC38 murine colon carcinoma syngeneic model; format: in vivo, C57BL/6 mouse; conditions: 2 mg/kg IP b.i.d. × 5, 2 cycles
Protocol: 1×10^6 MC38 cells in 0.1 ml of PBS were implanted subcutaneously for each 7-10 weeks old syngeneic female C57BL/6 mouse in the right front flank region. Tumors were allowed to grow to palpable size, i.e., 80-100 cu mm before randomization and assigning groups (n=3) as designed. The mice were administered test compounds i.e., IL-2, rIL-2-polymer conjugates of vehicle at different dose concentrations and dose regimes as indicated in Table 12. The body weights and tumor volumes were measured three times per week.
as §1, with “FIG. 8.” for “FIGS. 5A-7B.”, “rate, and” for “rate,”, “toxicity” for “toxicity and rechallenge results”, “Table 13.” for “Tables 9-11.”

NK cells = experiment: pSTAT5 signaling in human LRS-derived PBMC, NK cells (flow cytometry); format: cell-based; conditions: 45 minute incubation
Protocol: as §2, §3, §4, §5, §6

[3] = system: metastatic melanoma and renal cell carcinoma; conditions: high-dose regimen administered every eight hours; cited from earlier work
[4] = Table 9, 2 mg/kg IP b.i.d. × 5, 2 cycles
[5] = Table 11, 2 mg/kg IP b.i.d. × 5, 2 cycles

## Example 24: recombinant IL-2 of SEQ ID NO:1 expressed in E. coli, used as control
CD8+ T cells; Run 1
  CD8/Treg ratio (pSTAT5 EC50): 928
  pSTAT5 EC50, CD8+ T cells: 37.10 ng/mL
CD8+ T cells; Run 2
  CD8/Treg ratio (pSTAT5 EC50): 302
  pSTAT5 EC50, CD8+ T cells: 78.50 ng/mL
CD8+ T cells; Run 3
  CD8/Treg ratio (pSTAT5 EC50): 1874
  pSTAT5 EC50, CD8+ T cells: 37.48 ng/mL
[1]; Table 9 (FIGS. 5A-5B), 2 mg/kg IP b.i.d. × 5, 2 cycles
  TGI (day 19): 61.76%
[1]; [4]
  CR (tumor free mice/mice treated): 1/8
  Re-challenge (final tumor free mice/re-challenged mice): 1/1
[1]; Table 10 (FIGS. 6A-6B), 3 mg/kg (first cycle) IP, 2 mg/kg (second cycle) IV, b.i.d. × 5, 2 cycles
  TGI (day 3): 95.71% (day 3)
[1]; Table 10, 3, 2 mg/kg b.i.d. × 5, 2 cycles
  CR (tumor free mice/mice treated): 0/8
[1]; Table 11 (FIGS. 7A-7B), 2 mg/kg IP b.i.d. × 5, 2 cycles
  TGI (day 17): 102.41%
[1]; [5]
  CR (tumor free mice/mice treated): 1/8
  Re-challenge (final tumor free mice/re-challenged mice): 1/1
Treg cells; Run 1
  pSTAT5 EC50, Treg cells: 0.04 ng/mL
Treg cells; Run 2
  pSTAT5 EC50, Treg cells: 0.26 ng/mL
Treg cells; Run 3
  pSTAT5 EC50, Treg cells: 0.02 ng/mL
CTLL-2 cells; Table 3A, 48 hour incubation, CCK8
  EC50: 1.03 pM
CTLL-2 cells; Table 3B, unreleased conjugate (rIL-2 control as such)
  EC50, CTLL-2 cell proliferation: 0.78 ng/mL
[2]; Table 13 (FIG. 8)
  TGI (day 15): 100.75%
[2]; Table 13
  CR (day 38) (tumor free mice/mice treated): 1/8
NK cells; Run 1
  pSTAT5 EC50, NK cells: 9.34 ng/mL
NK cells; Run 2
  pSTAT5 EC50, NK cells: 22.02 ng/mL
NK cells; Run 3
  pSTAT5 EC50, NK cells: 4.01 ng/mL

## aldesleukin
[3]
  Durable responses: up to 25%

Source: US20240269293A1, “PROTEIN-MACROMOLECULE CONJUGATES AND METHODS OF USE THEREOF” (BEIJING XUANYI PHARMASCIENCES CO., LTD., priority 2021, published 2024)
